Experimental data published in patent US12382955B2, “Peroxyformic acid compositions for membrane filtration cleaning in energy services” (priority 2016, dated 2025).

Experiments:
oil and gas biofilm = test: Biofilm percent reductions (Example 5)
[1] = Membrane compatibility, simulated exposure soak, clean water flux and salt rejection (Example 4); details: Koch HRX, PFA 300 ppm, 77 F
Protocol: The effects of PFA on reverse osmosis members which contain a polyamide structure in comparison with known control chemicals were tested. Three different membranes were tested including Koch HRX, Hydranautics CPA5 and Hydranautics ESPA2+. Membranes were soaked in duplicate, in chemistries according to Table 4.
Membranes were then conditioned in Ultrasil 110 at a pH of 11 for 90 minutes at 50° C., followed by a rinse in DI water.
Each of the chemistries, with the exception of PFA was refreshed daily. PFA was refreshed hourly. After the simulated exposure the membranes are rinsed with DI water and placed on the Flat Sheet Membrane skid (Model M20). The membranes were rinsed with DI water for 24 hours at standard UF pressure and temperature. Once 24 hours was completed the membranes were subjected to alkaline conditioning step until solution pH is 11. 15.14 grams of NaCl was added to the recirculating water (2000 ppm NaCl) and the system was allowed to continue circulating. The conductivity of each permeate tube and feed was then measured and recorded and shown as percent rejection. The percent rejection was determined by (conductivity of the feed−conductivity of the permeate)/(conductivity of the feed).

SMILES | Biofilm percent reductions, ATP (oil and gas biofilm; 250 ppm) [%] | Biofilm percent reductions, Total biofilm (oil and gas biofilm; 250 ppm) [%] | inhibition at 250 ppm (oil and gas biofilm; read-out: Biofilm percent reductions, Viable biofilm) [%] | Water Flux (LMH) PFA 1 YR ([1]; simulated 1 year, 78 hr soak) [LMH] | Water Flux (LMH) PFA 3 YR ([1]; simulated 3 years, 234 hr soak) [LMH] | Biofilm percent reductions, ATP (oil and gas biofilm; 75 ppm active) [%] | Biofilm percent reductions, Total biofilm (oil and gas biofilm; 75 ppm active) [%] | Biofilm percent reductions, Viable biofilm (oil and gas biofilm; 75 ppm active) [%]
O=CCCCC=O [Glutaraldehyde, reference compound] | 94 | 58 | 81 | – | – | – | – | –
O=COO [PFA, peroxyformic acid] | – | – | – | 65.40 | 75.84 | 99 | 85 | 96
